The structures appear in SMILES notation.

Data set [1] in a line: 50% anesthetic dose in mice (i.v.). The conditions noted are these: for selectivity ratio: in vivo, read-out: LD50/AD50; for selectivity ratio / ED50: iv, mouse, i.v.; for ED50: read-out: AD50 (50% anesthetic dose). It counts as in vivo, mouse. The text has this:
(§1) The compounds included in this invention are useful as general anesthetics.

A short description of data set [2]: anesthesia, sleeping time and post-anesthetic recovery in rabbits (i.v.). It counts as in vivo, rabbit. The method, then: In rabbits, KA-100 caused an anesthesia at the doses of more than 10 mg/kg (i.v.), and the sleeping times at 20 and 30 mg/kg were 20 min. and more than 20 min. respectively.
(§2) Thiopental-Na caused an anesthesia lasted for 13 min. after injection of 20 mg/kg and 30 min. after 30 mg/kg.

The nature of data set [3]: 50% anesthetic dose in rats (i.v.). It counts as in vivo, rat. The note with it: for selectivity ratio: in vivo, read-out: LD50/AD50; for selectivity ratio / ED50: iv, rat, i.v.; for ED50: read-out: AD50 (50% anesthetic dose).
From the text: as §1

A further data set is described as follows: solubility in water. It counts as physicochemical. The conditions noted are these: maleate, nearly physiological pH (pH 6).
Data set [4] is described as follows: 50% lethal dose in mice (i.v.). The conditions noted are these: in vivo, iv, mouse.
From the text: as §1

Data set [5] relates to withdrawal reflex against nociceptive stimuli. The experiment in a line: withdrawal reflex against nociceptive stimuli (pinching of hind leg toes, small incision of abdomen) in rabbits. The conditions noted are these: for anti-nociceptive activity: same doses for KA-100 and thiopental-Na. It counts as in vivo, rabbit. The method, then:
as §2

The nature of data set [6]: 50% lethal dose in rats (i.v.). The note with it: in vivo, iv, rat.
From the text: as §1

In a further data set the test system is extension of hind legs. The experiment in a line: reflex against extension of hind legs / muscular relaxation in rabbits. The conditions noted are these: for muscular relaxant activity / muscular rigidity: same doses for KA-100 and thiopental-Na. It counts as in vivo, rabbit. How it is done: as §2
A short description of data set [7]: disturbance of blood vessels. The conditions noted are these: maleate.

In the case of `CCOC=CC(=O)N1C[C@H](C)N(CCCc2ccccc2)C[C@H]1C.O=C(O)/C=C\C(=O)O` (relative stereo) [KA-100, trans-1-(3-phenylpropyl)-2,5-dimethyl-4-(β-ethoxyacryloyl)piperazine maleate], the selectivity ratio in [1] came to 4.9; in data set [3], 12.6. Also, the ED50 in [1] was found to be 7.6 mg/kg; in data set [3], 4.8 mg/kg. Moreover, the anesthetic effect entry in data set [1] (mice), in data set [2] and in [3] (rats) was “good anesthetic effect” throughout. Further, the “sleeping time / duration of anesthesia” value in data set [2] (20 mg/kg) is 20 min; in data set [2] (30 mg/kg), “more than 20 min”. Besides, in data set [2] (KA-100 and thiopental-Na compared), the pharmacological potency result is recorded as “practically equal”. Also, the minimal effective dose in [2] (Oryctolagus cuniculus, iv, read-out: doses that caused an anesthesia) is more than 10 mg/kg. Further, in [2] (compared with thiopental-Na), the “recovery from ataxic state in post-anesthetic period” value is “far more rapid”. For the same molecule, the solubility in water entry in the data set “solubility in water” is reported as “soluble in water”. Besides, the LD50 was 37.3 mg/kg in data set [4] and 60.2 mg/kg in data set [6]. Further, the “withdrawal reflex against nociceptive stimuli” value in [5] (more than 20 mg/kg) is “lost the withdrawal reflex against nociceptive stimuli”. Moreover, the anti-nociceptive activity result in [5] was “anti-nociceptive”. In addition, the “reflex against extension of hind legs” value with extension of hind legs (more than 20 mg/kg) is “lost the withdrawal reflex against nociceptive stimuli (pinching of hind leg toes by a forceps or small incision of abdomen) and against extension of hind legs”. Also, in the data set with extension of hind legs, the “muscular relaxant activity / muscular rigidity” value is “muscular relaxant activity”. Also, the “disturbance of blood vessels” value in data set [7] is on record as “does not disturb blood vessels”.

With `CCCC(C)C1(CC)C(=O)NC(=S)NC1=O` (stereo not drawn) [Thiopental-Na, reference compound], the results for the selectivity ratio in data set [1] and in data set [3] were 4.3 and 7.5, respectively. Moreover, the results for the ED50 in data set [1] and in data set [3] were 20.9 mg/kg and 10.7 mg/kg, respectively. The “sleeping time / duration of anesthesia” value was determined as 13 min in data set [2] (20 mg/kg) and 30 min in [2] (30 mg/kg). Further, the LD50 in [4] stood at 90.9 mg/kg; in data set [6], 80.3 mg/kg. The anti-nociceptive activity result in [5] is “no anti-nociceptive effect”. The “muscular relaxant activity / muscular rigidity” value in the data set on extension of hind legs is “induced muscular rigidity”.

As usually defined, the LD50 is the dose expected to kill half of the subjects tested. A high value points to a less toxic substance.
